Source: patent US9108950B2, “1-pyrazolyl-3-(4-((2-anilinopyrimidin-4-yl)oxy)napththalen-1-yl) ureas as p38 MAP kinase inhibitors” (Respivert Ltd., priority 2011, dated 2015)

Key:
[1] = tested on: Cigarette Smoke Model; assay: Cigarette smoke model; format: in vivo, A/J mice
Procedure: A/J mice (males, 5 weeks old) were exposed to cigarette smoke (4% cigarette smoke, diluted with air) for 30 min/day for 11 days using a Tobacco Smoke Inhalation Experiment System for small animals (Model SIS-CS; Sibata Scientific Technology, Tokyo, Japan). […] At 12 hr after the last dosing, each of the animals was anesthetized, the trachea cannulated and bronchoalveolar lavage fluid (BALF) was collected. The numbers of alveolar macrophages and neutrophils were determined by FACS analysis (EPICS® ALTRA II, Beckman Coulter, Inc., Fullerton, Calif., USA) using anti-mouse MOMA2 antibody (macrophage) or anti-mouse 7/4 antibody (neutrophil). BALF was centrifuged and the supernatant was collected. The level of keratinocyte chemoattractant (KC; CXCL1) in BALF was quantitated using a Quentikine® mouse KC ELISA kit (R&D systems, Inc., Minneapolis, Minn., USA).

[2] = Physical stability on storage (TGA, XRPD, IR, DSC, appearance); format: physicochemical; parameters: key to XRD / IR: Cryst.: crystalline; ~Ref: pattern identical with reference sample; settings: for Appearance / IR / XRD / DSC max / TGA <100° C. weight loss / TGA <180° C. weight loss: form B micronized
Procedure: Patterns were obtained on a PANalytical (Philips) X'PertPRO MPD diffractometer equipped with a Cu LFF X-ray tube (45 kV; 40 mA; Bragg-Brentano; spinner stage) and were acquired using Cu Kα radiation under the following measurement conditions: scan mode: continuous; scan range: 3 to 50° 2θ; step size: 0.02°/step; counting time: 30 sec/step; spinner revolution time: 1 sec; incident beam path: program. divergence slit: 15 mm; Soller slit: 0.04 rad; beam mask: 15 mm; anti scatter slit: 1°; beam knife: +; Diffracted beam path: long anti scatter shield: +; Soller slit: 0.04 rad; Ni filter: +; detector: X'Celerator. Samples were prepared by spreading on a zero background sample holder.
Micro attenuated total reflectance (microATR) was used and the sample was analyzed using a suitable microATR accessory and the following measurement conditions: apparatus: Thermo Nexus 670 FTIR spectrometer; number of scans: 32; resolution: 1 cm^−1; wavelength range: 4000 to 400 cm^−1; detector: DTGS with KBr windows; beamsplitter: Ge on KBr; micro ATR accessory: Harrick Split Pea with Si crystal.
Data were collected on a TA-Instruments Q1000 MTDSC equipped with RCS cooling unit. Typically 3 mg of each compound, in a standard aluminium TA-Instrument sample pan, was heated at 10° C./min from 25 C to 300° C. A nitrogen purge at 50 mL/min was maintained over the sample.
Data were collected on a TA-Instruments Q500 thermogravimeter Typically 10 mg of each sample was transferred into a pre-weighed aluminium pan and was heated at 20° C./min from ambient temperature to 300° C. or […] unless otherwise stated.
Thermal analysis of Compound (I) as the anhydrous free base in crystalline polymorphic form B (micronized) was undertaken using TGA, DVS, XRPD analysis, IR spectroscopy and DSC as described in General Procedures. Where appropriate, a sample at ambient temperature and relative humidity (reference sample/“0 days”) was compared with samples stored at various temperatures and relative humidities (comparative samples).
The reference sample (t=0) and the comparative samples that were exposed prior to analysis to different storage conditions, were heated at a rate of 20° C./min from RT to 300° C. The TGA curve of the reference sample (t=0) is illustrated in FIG. 3 and the results for all samples are summarised below (Table 8). […] The weight loss that occurred above 180° C. was due to evaporation and decomposition of the product. Comparing this weight loss profile with those of the comparative samples in Table 8, no significant differences were observed.
The XPRD diffraction pattern of the reference sample (t=0) is illustrated in FIG. 2 and the IR trace is illustrated in FIG. 6. The diffraction pattern and IR trace were compared with those of the comparative samples (exposed to different storage conditions) and the results are summarised in Table 8. The diffraction patterns and IR traces were identical for all samples.
The reference sample (t=0) and comparative samples, previously exposed to different storage conditions, were heated at a rate of 10° C./min from 25° C. to 300° C. The DSC curve of the reference sample is illustrated in FIG. 7 and the results for all samples are summarised below (Table 8). From FIG. 7, it is evident that the reference sample melted with decomposition at 214.0° C.

SMILES: Cc1ccc(-n2nc(C(C)(C)C)cc2NC(=O)Nc2ccc(Oc3ccnc(Nc4ccccc4)n3)c3ccccc23)cc1 [Compound (I), 1-(3-(tert-Butyl)-1-(p-tolyl)-1H-pyrazol-5-yl)-3-(4-((2-(phenylamino)pyrimidin-4-yl)oxy)naphthalen-1-yl)urea]
- CXCL1 in BALF % inhibition ([1]; 0.32 μg/mL): 0%
- Macrophage % inhibition ([1]; 0.32 μg/mL): 11%
- Neutrophil % inhibition ([1]; 0.32 μg/mL): 12%
- Neutrophil cell numbers in BALF ([1]; 0.32 μg/mL): 12.4 ± 0.32 × 10^4/mL
- Macrophage cell numbers in BALF ([1]; 0.32 μg/mL intra-nasal, tobacco smoke): 13.3 ± 0.20 × 10^4/mL
- CXCL1 in BALF ([1]; 0.32 μg/mL, tobacco smoke): 13.6 ± 1.69 pg/mL
- CXCL1 in BALF ([1]; 1.6 μg/mL): 12.2 ± 0.96 pg/mL
- CXCL1 in BALF % inhibition ([1]; 1.6 μg/mL): 26%
- Macrophage % inhibition ([1]; 1.6 μg/mL): 28%
- Macrophage cell numbers in BALF ([1]; 1.6 μg/mL): 11.6 ± 0.42 × 10^4/mL
- Neutrophil % inhibition ([1]; 1.6 μg/mL): 29%
- Neutrophil cell numbers in BALF ([1]; 1.6 μg/mL): 10.5 ± 0.06 × 10^4/mL
- CXCL1 in BALF ([1]; 8.0 μg/mL): 11.4 ± 0.15 pg/mL
- CXCL1 in BALF % inhibition ([1]; 8.0 μg/mL): 41%
- Macrophage % inhibition ([1]; 8.0 μg/mL): 43%
- Macrophage cell numbers in BALF ([1]; 8.0 μg/mL): 10.1 ± 0.42 × 10^4/mL
- Neutrophil % inhibition ([1]; 8.0 μg/mL): 41%
- Neutrophil cell numbers in BALF ([1]; 8.0 μg/mL): 9.1 ± 0.28 × 10^4/mL
- CXCL1 in BALF ([1]; 40 μg/mL): 9.5 ± 0.84 pg/mL
- CXCL1 in BALF % inhibition ([1]; 40 μg/mL): 76%
- Macrophage % inhibition ([1]; 40 μg/mL): 64%
- Macrophage cell numbers in BALF ([1]; 40 μg/mL): 7.9 ± 0.20 × 10^4/mL
- Neutrophil % inhibition ([1]; 40 μg/mL): 52%
- Neutrophil cell numbers in BALF ([1]; 40 μg/mL): 7.9 ± 0.34 × 10^4/mL
- effect on cigarette smoke induced CXCL1 (KC) production in BALF ([1]; mice): inhibited
- effect on macrophage and neutrophil accumulation in BALF induced by cigarette smoke ([1]; mice): dose-dependent inhibition
- physical stability ([2]; form B): good physical stability
- Appearance ([2]; 1 week/70° C./75% RH): off-white
- IR ([2]; 1 week/70° C./75% RH): ~Ref
- XRD ([2]; 1 week/70° C./75% RH): ~Ref
- Appearance ([2]; 1 week/80° C.): off-white
- IR ([2]; 1 week/80° C.): ~Ref
- XRD ([2]; 1 week/80° C.): ~Ref
- Appearance ([2]; 4 weeks/40° C./75% RH): off-white
- DSC max ([2]; 4 weeks/40° C./75% RH): 214 °C
- IR ([2]; 4 weeks/40° C./75% RH): ~Ref
- TGA <100° C. weight loss ([2]; 4 weeks/40° C./75% RH): 0.8%
- TGA <180° C. weight loss ([2]; 4 weeks/40° C./75% RH): 0.3%
- XRD ([2]; 4 weeks/40° C./75% RH): ~Ref
- Appearance ([2]; 4 weeks/50° C.): off-white
- DSC max ([2]; 4 weeks/50° C.): 214 °C
- IR ([2]; 4 weeks/50° C.): ~Ref
- TGA <100° C. weight loss ([2]; 4 weeks/50° C.): 1.3%
- TGA <180° C. weight loss ([2]; 4 weeks/50° C.): 0.5%
- XRD ([2]; 4 weeks/50° C.): ~Ref
- Appearance ([2]; 4 weeks/RT/56% RH): off-white
- DSC max ([2]; 4 weeks/RT/56% RH): 214 °C
- IR ([2]; 4 weeks/RT/56% RH): ~Ref
- TGA <100° C. weight loss ([2]; 4 weeks/RT/56% RH): 0.5%
- TGA <180° C. weight loss ([2]; 4 weeks/RT/56% RH): 0.4%
- XRD ([2]; 4 weeks/RT/56% RH): ~Ref
- Appearance ([2]; 4 weeks/RT/75% RH): off-white
- DSC max ([2]; 4 weeks/RT/75% RH): 214 °C
- IR ([2]; 4 weeks/RT/75% RH): ~Ref
- TGA <100° C. weight loss ([2]; 4 weeks/RT/75% RH): 0.9%
- TGA <180° C. weight loss ([2]; 4 weeks/RT/75% RH): 0.5%
- XRD ([2]; 4 weeks/RT/75% RH): ~Ref
- Appearance ([2]; 4 weeks/RT/<5% RH): off-white
- DSC max ([2]; 4 weeks/RT/<5% RH): 214 °C
- IR ([2]; 4 weeks/RT/<5% RH): ~Ref
- TGA <100° C. weight loss ([2]; 4 weeks/RT/<5% RH): 0.8%
- TGA <180° C. weight loss ([2]; 4 weeks/RT/<5% RH): 0.5%
- XRD ([2]; 4 weeks/RT/<5% RH): ~Ref
- Appearance ([2]; T = zero): off-white
- DSC max ([2]; T = zero): 214 °C
- IR ([2]; T = zero): Cryst.
- TGA <180° C. weight loss ([2]; T = zero): 0.6%
- XRD ([2]; T = zero): Cryst.
